pEC50: −log10 of the molar value.

The target of the first assay is T1, human GPR120 (Homo sapiens, UniProt Q5NUL3).
T1 construct: host or cells: HEK293 cells co-expressing Gqi5
T1 sequence (Q5NUL3 1-361): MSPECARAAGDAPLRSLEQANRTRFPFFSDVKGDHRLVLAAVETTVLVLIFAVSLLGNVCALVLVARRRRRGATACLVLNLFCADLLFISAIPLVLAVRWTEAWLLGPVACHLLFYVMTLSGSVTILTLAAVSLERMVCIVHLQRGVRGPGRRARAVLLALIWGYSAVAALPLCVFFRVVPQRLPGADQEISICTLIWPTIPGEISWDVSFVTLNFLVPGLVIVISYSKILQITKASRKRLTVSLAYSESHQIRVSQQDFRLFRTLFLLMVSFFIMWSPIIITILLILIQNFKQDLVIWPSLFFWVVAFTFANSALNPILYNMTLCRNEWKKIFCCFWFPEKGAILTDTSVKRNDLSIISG
The assay is described as follows: Intracellular Ca2+ assay in human GPR120 stable cell line (FLIPR Calcium 4 dye, Flexstation). The assay is classed as cell-based. The note with it: HEK293, % activity at 2.5 µM compared to the maximal activity of the compound of Example 25 at 2.5 µM (=100%); HEK293 cells co-expressing Gqi5; read-out: % Activity (Ex. 25 Reference Compound). As to the method: Human GPR120 stable cell line was purchased from Multispan Inc (26219 Eden Landing Road, Hayward, CA94545). This GPR120 cell line was generated in HEK293 cells co-expressing Gqi5. In this cell line, the Flag epitope tag (DYKDDDDK) was fused to the amino terminus of human GPR120 protein.
The concentration of intracellular Ca^2+ was measured as described below. Human GPR120 cells were plated in 96 well plates (Poly-D-Lysine coated black/clear Plate, Greiner Bio-One) at 70,000 cells per well and cultured overnight in conditions of 37°C and 5% CO2. A Ca^2+ assay dye stock solution was prepared by adding 10 mL of assay buffer (HBSS/20mM HEPES, pH 7.4) to FLIPR Calcium 4 Assay Bulk Kit (Molecular Devices). The 10 mL of Ca^2+ assay dye solution was prepared by further diluting 0.5 mL of Ca^2+ assay dye stock solution with 10 mL of assay buffer. The medium of the cells was removed and immediately 100 µL of the Ca^2+ assay dye solution was dispensed into each well followed by incubation at 37°C and 5% CO2 for 50 minutes to incorporate the Ca^2+ dye into the cells. The cell plate was then placed in the Flexstation (Molecular Devices) for 20 minutes at 37°C. Compounds were dissolved in 100% DMSO and diluted to desired concentrations with assay buffer and placed in the Flexstation simultaneously with the cell plate for 20 minute incubation at 37°C prior to reading. Fluorescence intensity was measured immediately following compound addition (25 µL/well) on the Flexstation at an excitation wavelength of 485 nm and an emission wavelength of 525 with 515 nm auto cutoff. The resulting increase in fluorescence intensities corresponds to increases in intracellular Ca^2+ levels.
Compounds were dissolved in 100% DMSO to a concentration of 20 mM to provide stock solutions. To determine activity against human GPR120, compounds were added with human GPR120 stably expressing cells (described above), at eight desired concentrations ranging from 0.00001 to 20 µM, in 96 well plates and fluorescence intensities were measured for 90 seconds with 2-second intervals. An EC50 value (concentration of the GPR120 agonist where 50% of the agonist's maximal activity is observed) was calculated using the changes (Max-Min) of fluorescence intensity.
To determine percent activity for a tested compound, the fluorescence intensity value obtained at a particular concentration were compared to the maximal fluorescence intensity value obtained for reference compound GW9508 (4-[[(3-phenoxyphenyl)methyl]amino]benzene propanoic acid; British Journal of Pharmacology 2006 148, 619-628) or the compound of Example 25. When GW9508 was used as the reference compound, the maximal activity of GW9508 at 6.7µM was designated as 100% activity. When the compound of Example 25 was used as the reference compound, the maximal activity of the compound of Example 25 at 2.5 µM was designated as 100% activity. Typically, the GW9508 activity reached a maximum at a concentration of approximately 6.7 µM and typically the compound of Example 25 reached a maximum activity at approximately 2.5µM. […]
As for `CC1(C)Cc2cc(Cl)cc(COc3c(F)cc(C4CC4CC(=O)O)cc3F)c2O1` (stereo not shown) [Example 41, 2-(2-(4-((5-chloro-2,2-dimethyl-2,3-dihydrobenzofuran-7-yl)methoxy)-3,5-difluorophenyl)cyclopropyl)acetic acid], the activity at 2.5 µM amounted to 116%.

For `CC(Cc1cc(F)c(OCc2c(F)c(F)cc3c2OC(C)(C)C3)c(F)c1)C(=O)O` (stereo not shown) [Example 42, 3-(4-((5,6-difluoro-2,2-dimethyl-2,3-dihydrobenzofuran-7-yl)methoxy)-3,5-difluorophenyl)-2-methylpropanoic acid], the activity at 2.5 µM stood at 141%.

Turning to `CC(Cc1ccc(COc2cccc3c2OC(C)(C)C3)c(F)c1)C(=O)O` (stereo not shown) [Example 44, 3-(4-(((2,2-dimethyl-2,3-dihydrobenzofuran-7-yl)oxy)methyl)-3-fluorophenyl)-2-methylpropanoic acid], the activity at 2.5 µM was determined as 157%.

Turning to `CC(Cc1ccc(OCc2cc(F)cc3c2OCOC3)cc1)C(=O)O` (stereo not shown) [Example 45, 3-(4-((6-fluoro-4H-benzo[d][1,3]dioxin-8-yl)methoxy)phenyl)-2-methylpropanoic acid], the activity at 2.5 µM was found to be 79.6%.

As for `Cc1cc(OCc2cc(F)cc3c2OC(C)(C)C3)ccc1CCC(=O)O` [Example 46, 3-(4-((5-fluoro-2,2-dimethyl-2,3-dihydrobenzofuran-7-yl)methoxy)-2-methylphenyl)propanoic acid], the activity at 2.5 µM turned out to be 114%.

Take `CC1(C)Cc2cc(F)cc(COc3ccc(CCC(=O)O)c(Cl)c3)c2O1` [Example 47, 3-(2-chloro-4-((5-fluoro-2,2-dimethyl-2,3-dihydrobenzofuran-7-yl)methoxy)phenyl)propanoic acid]: the activity at 2.5 µM came to 111%.

Turning to `CC1(C)Cc2cc(Cl)cc(COc3ccc(CCC(=O)O)c(F)c3)c2O1` [Example 53, 3-(4-((5-chloro-2,2-dimethyl-2,3-dihydrobenzofuran-7-yl)methoxy)-2-fluorophenyl)-propanoic acid], the activity at 2.5 µM was determined as 143%.

Turning to `CC1(C)Cc2cc(Cl)cc(COc3cc(F)c(CCC(=O)O)c(F)c3)c2O1` [Example 54, 3-(4-((5-chloro-2,2-dimethyl-2,3-dihydrobenzofuran-7-yl)methoxy)-2,6-difluorophenyl)propanoic acid], the activity at 2.5 µM was 139%.

With `COc1cc(CCC(=O)O)c(Br)cc1OCc1cc(F)cc2c1OC(C)(C)C2` [Example 56, 3-(2-bromo-4-((5-fluoro-2,2-dimethyl-2,3-dihydrobenzofuran-7-yl)methoxy)-5-methoxyphenyl)propanoic acid], the activity at 2.5 µM was 109%.

For `CC1(C)Cc2cc(Cl)cc(COc3ccc(SCC(=O)O)cc3)c2O1` [Example 59, 2-((4-((5-chloro-2,2-dimethyl-2,3-dihydrobenzofuran-7-yl)methoxy)phenyl)thio)-acetic acid], the activity at 2.5 µM was 118%.

Regarding `CC1(C)Cc2cc(F)cc(COc3ccc(CCC(=O)O)c4c3CCC4)c2O1` [Example 63, 3-(7-((5-fluoro-2,2-dimethyl-2,3-dihydrobenzofuran-7-yl)methoxy)-2,3-dihydro-1H-inden-4-yl)propanoic acid], the activity at 2.5 µM is 95%.

As for `CC(Cc1ccc(NCc2cc(F)cc3c2OC(C)(C)C3)cc1)C(=O)O` (stereo not shown) [Example 67, 3-(4-(((5-fluoro-2,2-dimethyl-2,3-dihydrobenzofuran-7-yl)methyl)amino)phenyl)-2-methylpropanoic acid], the activity at 2.5 µM stood at 142%.

For `CC(Cc1ccc(NC(=O)c2cc(F)cc3c2OC(C)(C)C3)cc1)C(=O)O` (stereo not shown) [Example 68, 3-(4-(5-fluoro-2,2-dimethyl-2,3-dihydrobenzofuran-7-carboxamido)phenyl)-2-methylpropanoic acid], the activity at 2.5 µM amounted to 69%.

Staying with this assay, now noted: HEK293, % activity at 5 µM compared to the maximal activity of GW9508 at 6.7 µM (=100%); HEK293 cells co-expressing Gqi5; read-out: %Activity (GW9508 Reference Compound).
As for `CC(Cc1cc(F)c(OCc2ccc(F)c3c2OC(C)(C)C3)c(F)c1)C(=O)O` (stereo not shown) [Example 28, 3-(3,5-difluoro-4-((4-fluoro-2,2-dimethyl-2,3-dihydrobenzofuran-7-yl)methoxy)phenyl)-2-methylpropanoic acid], the activity at 5 µM came to 110%.

As to `CC(Cc1ccc(OCc2ccc(F)c3c2OC(C)(C)C3)c(F)c1)C(=O)O` (stereo not shown) [Example 29, 3-(3-fluoro-4-((4-fluoro-2,2-dimethyl-2,3-dihydrobenzofuran-7-yl)methoxy)phenyl)-2-methylpropanoic acid], the activity at 5 µM amounted to 134%.

On to `CC(Cc1ccc(OCc2ccc(F)c3c2OC(C)(C)C3)cc1)C(=O)O` (stereo not shown) [Example 30, 3-(4-((4-fluoro-2,2-dimethyl-2,3-dihydrobenzofuran-7-yl)methoxy)phenyl)-2-methylpropanoic acid], for which the activity at 5 µM stood at 177%.

As for `CC1(C)Cc2c(C(F)(F)F)ccc(COc3c(F)cc(C4CC4C(=O)O)cc3F)c2O1` (stereo not shown) [Example 31, 2-(4-((2,2-dimethyl-4-(trifluoromethyl)-2,3-dihydrobenzofuran-7-yl)methoxy)-3,5-difluorophenyl)cyclopropanecarboxylic acid], the activity at 5 µM was found to be 150%.

Take `CC(Cc1cc(F)c(OCc2ccc(C(F)(F)F)c3c2OC(C)(C)C3)c(F)c1)C(=O)O` (stereo not shown) [Example 32, 3-(4-((2,2-dimethyl-4-(trifluoromethyl)-2,3-dihydrobenzofuran-7-yl)methoxy)-3,5-difluorophenyl)-2-methylpropanoic acid]: the activity at 5 µM came to 143%.

Regarding `CC(Cc1ccc(OCc2ccc(C(F)(F)F)c3c2OC(C)(C)C3)c(F)c1)C(=O)O` (stereo not shown) [Example 33, 3-(4-((2,2-dimethyl-4-(trifluoromethyl)-2,3-dihydrobenzofuran-7-yl)methoxy)-3-fluorophenyl)-2-methylpropanoic acid], the activity at 5 µM came out at 143%.

Turning to `CC(Cc1ccc(OCc2ccc(C(F)(F)F)c3c2OC(C)(C)C3)cc1)C(=O)O` (stereo not shown) [Example 34, 3-(4-((2,2-dimethyl-4-(trifluoromethyl)-2,3-dihydrobenzofuran-7-yl)methoxy)phenyl)-2-methylpropanoic acid], the activity at 5 µM came to 118%.

Regarding `CC1(C)Cc2cc(F)cc(COc3ccc4c(c3)CCC4CC(=O)O)c2O1` (stereo not shown) [Example 37, 2-(5-((5-fluoro-2,2-dimethyl-2,3-dihydrobenzofuran-7-yl)methoxy)-2,3-dihydro-1H-inden-1-yl)acetic acid], the activity at 5 µM amounted to 125%.

Regarding `CC(Cc1cc(F)c(OCc2cc(Cl)cc3c2OC(C)(C)C3)c(F)c1)C(=O)O` (stereo not shown) [Example 38, 3-(4-((5-chloro-2,2-dimethyl-2,3-dihydrobenzofuran-7-yl)methoxy)-3,5-difluorophenyl)-2-methylpropanoic acid], the activity at 5 µM came to 83.4%.

As to `CC(Cc1cc(F)c(OCc2cccc3c2OC(C)C3C)c(F)c1)C(=O)O` (stereo not shown) [Example 40, 3-(4-((2,3-dimethyl-2,3-dihydrobenzofuran-7-yl)methoxy)-3,5-difluorophenyl)-2-methylpropanoic acid], the activity at 5 µM is 95.3%.

Staying with this assay, now noted: eight concentrations from 0.00001 to 20 µM; changes (Max-Min) of fluorescence intensity.
Regarding `CC(Cc1ccc(OCc2ccc(C(F)(F)F)c3c2OC(C)(C)C3)cc1)C(=O)O` (stereo not shown) [Example 34, 3-(4-((2,2-dimethyl-4-(trifluoromethyl)-2,3-dihydrobenzofuran-7-yl)methoxy)phenyl)-2-methylpropanoic acid], the negative-log EC50 (pEC50) is below 5.00.

Regarding `CC(Cc1cc(F)c(OCc2c(F)c(F)cc3c2OC(C)(C)C3)c(F)c1)C(=O)O` (stereo not shown) [Example 42, 3-(4-((5,6-difluoro-2,2-dimethyl-2,3-dihydrobenzofuran-7-yl)methoxy)-3,5-difluorophenyl)-2-methylpropanoic acid], the pEC50 was 5.00 to 6.00.

Regarding `CC(Cc1ccc(OCc2c(F)c(F)cc3c2OC(C)(C)C3)cc1)C(=O)O` (stereo not shown) [Example 43, 3-(4-((5,6-difluoro-2,2-dimethyl-2,3-dihydrobenzofuran-7-yl)methoxy)phenyl)-2-methylpropanoic acid], the pEC50 was below 5.00.

In the case of `CC(Cc1ccc(COc2cccc3c2OC(C)(C)C3)c(F)c1)C(=O)O` (stereo not shown) [Example 44, 3-(4-(((2,2-dimethyl-2,3-dihydrobenzofuran-7-yl)oxy)methyl)-3-fluorophenyl)-2-methylpropanoic acid], the pEC50 is 5.00 to 6.00.

Consider `CC(Cc1ccc(OCc2cc(F)cc3c2OCOC3)cc1)C(=O)O` (stereo not shown) [Example 45, 3-(4-((6-fluoro-4H-benzo[d][1,3]dioxin-8-yl)methoxy)phenyl)-2-methylpropanoic acid], for which the pEC50 was below 5.00.
